# Reference: patent US7022843B1, “β,β′-dihydroxy meso-substituted chlorins, isobacteriochlorins, and bacteriochlorins” (priority 1999, dated 2006)
# “And” between values parts separate entries of the source, which are not always exact repeats. Equal entries are not always repeated.
# Assays:
# L1210 cells = assay: Phototoxicity in L1210 cells, MTT viability assay; assay type: cell-based; details: phototoxicity
# Method: The above described compounds were tested in vitro for phototoxicity and dark toxicity in L1210 cells as described in the Example section below. Twenty four compounds which were tested for cytotoxicity are listed in Table 3 below along with BPD-MA.
# Phototoxicity was determined with L11210 cells in the presence of the compound as follows: the L1210 cells were exposed to varying concentrations of the compounds in 96-well microtiter plates for one hour at 37° C. and 5% CO2. No fetal calf serum (FCS) was added at this time. The plate was then illuminated for one hour after which a 10% aqueous FCS solution was added to the wells. The plates were then returned to the CO2 incubator overnight. After incubation, the cells were assayed for viability using the MTT assay (Mossman, T. J. Immunol. Meth. 1983, 65, 55).
# tumors [1] = details: in sensitizing tumors; cited from earlier work
# tumor = details: in vivo; cited from earlier work
# tumors [2] = details: cited from earlier work
# serum proteins = details: normal dose used for PDT (3–5 mg/kg body weight); cited from earlier work
compound,measurement,setting,value
"C=Cc1c(C)c2cc3nc(cc4[nH]c(cc5nc(cc1[nH]2)C(C)=C5CCC(=O)O)c(CCC(=O)OC)c4C)C1(C)C3=CC=C(C(=O)OC)C1C(=O)OC (centres unmarked) [BPDMA, reference compound]",LD50,L1210 cells,0.026 µM
same,LD50,"L1210 cells; L1210 cells, 1 h exposure without FCS, 1 h illumination, MTT",0.026 M and 19 ng/mL
same,LD50,"L1210 cells; L1210 cells, 1 h exposure without FCS, 1 h illumination, MTT, listed as BPD-MA",19 ng/mL
same,times more potent than HpD,tumors [1],70
same,times more potent than Photofrin™,tumors [1],45
Oc1cccc(-c2c3nc(c(-c4cccc(O)c4)c4ccc([nH]4)c(-c4cccc(O)c4)c4nc(c(-c5cccc(O)c5)c5ccc2[nH]5)CC4)C=C3)c1 [Tetra(m-hydroxyphenyl)chlorin],recurrence,tumor,10%
same,side effects,tumor,"extended skin sensitivity, severe chest pains and loss of appetite"
same,tumor necrosis,tumor,90%
same,LD50,tumors [2]; in vivo bioassays,3 mg/kg
same,times more effective than HpD in destroying tumors,tumors [2]; in vivo,25–30
CC1=C(CCC(=O)O)c2cc3[nH]c(cc4nc(cc5[nH]c(cc1n2)c(C)c5C(C)O)C(C)=C4C(C)O)c(C)c3CCC(=O)O (centres unmarked) [hematoporphyrin],complexed by serum proteins,serum proteins,at least 95%
